Reference: patent publication US9241968B2, “Nonapeptide with anti-tumour activity” (Lytix Biopharma AS, priority 2008, dated 2016)
Non-standard residues stand in square brackets, D forms with d. Residues, ends and D or L forms follow the SMILES beside them. Bip = N[C@@H](Cc1ccc(-c2ccccc2)cc1)C(=O)O; dBip = N[C@H](Cc1ccc(-c2ccccc2)cc1)C(=O)O; Dip = N[C@H](C(=O)O)C(c1ccccc1)c1ccccc1

What was measured:
[1] = system: panel of 37 human cancer cell lines; test: In vitro cytotoxic activity, MTS assay, panel summary; format: cell-based; conditions: range stated in conclusions
Description: 2. Materials and Methods 2.1. Test Substances 2.1.1. Test Substances • Test substances, LTX-302, LTX-313, LTX-315, LTX-320 and LTX-329 (see Table 1) provided in powder form. 2.1.2. Positive Control • Triton X-100 was used as positive control, supplied by Oncodesign (Dijon, France) from Sigma (Saint Quentin Fallavier, France). 2.1.3. Drug Vehicle and Storage Conditions • Compounds were stored at 4° C. Powder was first dissolved in serum free culture medium (RPMI 1640, Lonza, Verviers, Belgium) and further diluted using serum-free culture medium to reach appropriate dilutions. Stock solution was not stored and was prepared fresh the day of experiment. • 1% (final concentration) Triton X-100 was obtained by dilution using culture medium. 2.2. Tumor Cell Lines and Culture Conditions 2.2.1. Tumor Cell Lines
Tumor cells were grown as adherent monolayers or as suspensions at 37° C. in a humidified atmosphere (5% CO2, 95% air). The culture medium was RPMI 1640 containing 2 mM L-glutamine (Lonza, Belgium) and supplemented with 10% fetal bovine serum (FBS, Lonza). For experimental use, the adherent cells were detached from the culture flask by a 5-minute treatment with trypsin-versene (Lonza), diluted in Hanks' medium without calcium or magnesium (Lonza) and neutralized by addition of complete culture medium. Cells were counted in a hemocytometer and their viability was assessed by 0.25% trypan blue exclusion.
Tumor cells were plated in 96-well flat-bottom microtitration plates (Nunc, Dutscher, Brumath, France) and incubated at 37° C. for 24 hours before treatment in 190 μl of drug-free culture medium supplemented or not with 10% FBS for adherent or suspension growing cell lines, respectively.
The adherent cell lines were washed once with 200 μl FBS-free culture medium before treatment. […]
Three (3) independent experiments were performed, each concentration being tested in quadruplicate. […] At the end of treatments, the cytotoxic activity was evaluated by a MTS assay (see §3.3). […]
At the end of the cells treatment, 40 μl of a 0.22 μm filtered freshly combined solution of MTS (20 ml at 2 mg/ml, Ref G1111, Batch 235897, Exp March/2009, Promega, Charbonnières, France) and PMS (1 ml at 0.92 mg/ml, Ref P9625, Batch 065K0961, Sigma) in Dulbecco's Phosphate Buffered Saline (DPBS, Ref 17-513Q, Batch 6MB0152, Cambrex), were added in each well. […] Absorbency (OD) were measured at 490 nm in each well using VICTOR^3™ 1420 multilabeled counter (Wallac, PerkinElmer, Courtaboeuf, France). […]
The dose-response curves were plotted using XLFit 3 (IDBS, United Kingdom). The IC50 determination values were calculated using the XLFit 3 software from semi-log curves. […]

[2] = system: panel of 10 lymphoma cell lines; test: In vitro cytotoxic activity on lymphoma cells, MTS assay, panel summary; format: cell-based, human; conditions: range stated in conclusions
Source text: • To determine the concentrations of five novel compounds to obtain a 50% inhibition of proliferation (IC50) against a panel of 10 lymphoma cell lines. 2. Materials and Methods 2.1. Test Substances 2.1.1. Test Substances • Test substances, LTX-302, LTX-313, LTX-315, LTX-320 and LTX-329 (see Table 1) provided in powder form. 2.1.2. Positive Control • Triton X-100 was used as positive control and supplied by Oncodesign (Dijon, France) from Sigma (Saint Quentin Fallavier, France). 2.1.3. Drug vehicle and storage condition • Compounds were stored at 4° C. Powder was first dissolved in serum free culture medium (RPMI 1640, Lonza, Verviers, Belgium) and further diluted using serum-free culture medium to reach appropriate dilutions. Stock solution was not stored and was prepared fresh the day of experiment. • 1% (final concentration) Triton X-100 was obtained by dilution using culture medium. 2.2. Tumor Cell Lines and Culture Conditions 2.2.1. Tumor Cell Lines
Tumor cells were grown as suspensions at 37° C. in a humidified atmosphere (5% CO2, 95% air). The culture medium for each cell line is described in the Table 3 below. For experimental use, cells were counted in a hemocytometer and their viability was assessed by 0.25% trypan blue exclusion.
Tumor cells were plated in 96-well flat-bottom microtitration plates (Nunc, Dutscher, Brumath, France) and incubated at 37° C. for 24 hours before treatment in 190 μl of drug-free and FBS-free culture medium.
Tumor cells were incubated for 4 hours with 10 concentrations of compounds in ¼ dilution step with a top dose of 400 μM (range 4×10^−4 to […]), with 1% (final concentration) Triton X-100 as positive control and FBS-free culture medium as negative control. The cells (190 μl) were incubated in a 200 μl final volume of FBS-free culture medium containing test substances at 37° C. under 5% CO2.
Three independent experiments were performed, each concentration being issued from quadruplicate. Control cells were treated with vehicle alone. At the end of treatments, the cytotoxic activity was evaluated by a MTS assay (see §3.3 below). […]
At the end of the cells treatment, 40 μl of a 0.22 μm filtered freshly combined solution of MTS (20 ml at 2 mg/ml, Ref G1111, Batch 235897, Exp March/2009, Promega, Charbonnières, France) and PMS (1 ml at 0.92 mg/ml, Ref P9625, Batch 065K0961, Sigma) in Dulbecco's Phosphate Buffered Saline (DPBS, Ref 17-513Q, Batch 6MB0152, Cambrex), were added in each well. […] Absorbency (OD) were measured at 490 nm in each well using VICTOR^3™ 1420 multilabeled counter (Wallac, PerkinElmer, Courtaboeuf, France).
4.1. IC50 Data was Determined as in Example 1

[3] = system: murine A20 B-cell lymphoma; test: Intratumoral treatment of murine A20 B-cell lymphoma tumours in mice; format: in vivo; conditions: Group 1 (1 mg) compared to the other two groups
Description: The aim of the study was to investigate the effect of LTX-315 at different dose levels on a murine A20 B-cell lymphoma in mice.
The administration took place by intratumoral injection of LTX-315 dissolved in sterile saline.
Female mice were inoculated subcutaneously in the abdomen with 5 million murine A20 cells (ATCC, LGC Promochem AB, Middlesex, England) in a volume of 50 μl. The mice were divided into four groups (see Table 5 below for details). The intratumoral treatment was initiated when the tumours had reached the desired size of approximately 5 mm in diameter (minimum of 20 mm^2).
Three dose levels of LTX-315, 1 mg (Group 1), 0.5 mg (Group 2) and 0.25 mg (Group 3) per injection, were investigated. The volume was 50 μl for all injections. LTX-315 was dissolved in sterile 0.9% NaCl water solution. This vehicle was used as control (Group 4). All four groups received three injections.
A caliper was used for tumour size measurements and weighing and physical examination were used as health control.
Animals: Specific pathogen-free female Balb/c mice, 6-8 weeks old, supplied form Harlan (England, UK)

| Structure (SMILES) | IC50 values against 37 human cancer cell lines (cytolytic activity), in words [1] | IC50 values against the 10 human lymphoma cell lines (cytolytic activity), in words [2] | necrosis and wound formation [3] |
| --- | --- | --- | --- |
| NCCCC[C@H](NC(=O)[C@H](Cc1c[nH]c2ccccc12)NC(=O)[C@H](Cc1c[nH]c2ccccc12)NC(=O)[C@H](CCCCN)NC(=O)[C@H](CCCCN)NC(=O)[C@H](Cc1c[nH]c2ccccc12)NC(=O)[C@H](Cc1ccc(-c2ccccc2)cc1)NC(=O)[C@H](CCCCN)NC(=O)[C@@H](N)CCCCN)C(N)=O [LTX-313, K-K-Bip-W-K-K-W-W-K-NH2] (H-KK[Bip]WKKWWK-NH2; N-terminus assumed) | micromolar to ten micromolar range | micromolar range |  |
| NCCCC[C@H](NC(=O)[C@@H](NC(=O)[C@H](Cc1c[nH]c2ccccc12)NC(=O)[C@H](CCCCN)NC(=O)[C@H](CCCCN)NC(=O)[C@H](Cc1c[nH]c2ccccc12)NC(=O)[C@H](Cc1c[nH]c2ccccc12)NC(=O)[C@H](CCCCN)NC(=O)[C@@H](N)CCCCN)C(c1ccccc1)c1ccccc1)C(N)=O [LTX-315, K-K-W-W-K-K-W-Dip-K-NH2] (H-KKWWKKW[Dip]K-NH2) |  |  | stronger necrosis and more wound formation |
| N=C(N)NCCC[C@H](NC(=O)[C@H](Cc1c[nH]c2ccccc12)NC(=O)[C@H](Cc1c[nH]c2ccccc12)NC(=O)[C@H](CCCNC(=N)N)NC(=O)[C@H](CCCNC(=N)N)NC(=O)[C@@H](NC(=O)[C@H](Cc1c[nH]c2ccccc12)NC(=O)[C@H](CCCNC(=N)N)NC(=O)[C@@H](N)CCCNC(=N)N)C(c1ccccc1)c1ccccc1)C(N)=O [LTX-320, R-R-W-Dip-R-R-W-W-R-NH2] (H-RRW[Dip]RRWWR-NH2; N-terminus assumed) | micromolar to ten micromolar range | micromolar range |  |
| NCCCC[C@H](NC(=O)[C@H](Cc1c[nH]c2ccccc12)NC(=O)[C@H](CCCCN)NC(=O)[C@H](CCCCN)NC(=O)[C@@H](NC(=O)[C@H](Cc1c[nH]c2ccccc12)NC(=O)[C@H](CCCCN)NC(=O)[C@H](CCCCN)NC(=O)[C@@H](N)Cc1c[nH]c2ccccc12)C(c1ccccc1)c1ccccc1)C(N)=O [LTX-302, W-K-K-W-Dip-K-K-W-K-NH2] (H-WKKW[Dip]KKWK-NH2; N-terminus assumed) | micromolar to ten micromolar range | micromolar range |  |
| NCCCC[C@@H](N)C(=O)N[C@H](CCCCN)C(=O)N[C@H](Cc1ccc(-c2ccccc2)cc1)C(=O)N[C@H](Cc1c[nH]c2ccccc12)C(=O)N[C@H](CCCCN)C(=O)N[C@H](CCCCN)C(=O)N[C@H](Cc1c[nH]c2ccccc12)C(=O)N[C@H](Cc1c[nH]c2ccccc12)C(=O)N[C@H](CCCCN)C(N)=O [LTX-329, k-k-bip-w-k-k-w-w-k-NH2] (H-[dK][dK][dBip][dW][dK][dK][dW][dW][dK]-NH2; N-terminus assumed) | micromolar to ten micromolar range | micromolar range |  |
